Laboratory results taken from PubChem BioAssay (NCI).
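The concentration for 50% growth inhibition is given as GI50. TGI: total growth inhibition.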

Tests used:
Test in all cases: NCI tumour cell line growth inhibition, 384-well format
[1] = tested on: LOX IMVI melanoma
[2] = tested on: NCI-H226 lung
[3] = tested on: M14 melanoma
[4] = tested on: PC-3 prostate
[5] = tested on: SN12C renal
[6] = tested on: BT-549 breast
[7] = tested on: OVCAR-4 ovarian
[8] = tested on: UO-31 renal
[9] = tested on: 786-0 renal
[10] = tested on: HOP-92 NSCLC
[11] = tested on: SW-620 colon
[12] = tested on: T-47D breast
[13] = tested on: TK-10 renal
[14] = tested on: MCF7 breast
[15] = tested on: NCI-H322M lung
[16] = tested on: NCI-H460 NSCLC
[17] = tested on: SK-MEL-28 melanoma
[18] = tested on: DU-145 prostate
[19] = tested on: CAKI-1 renal
[20] = tested on: SF-539 CNS
[21] = tested on: RPMI-8226 leukemia
[22] = tested on: UACC-257 melanoma
[23] = tested on: SNB-19 CNS
[24] = tested on: HCT-116 colon
[25] = tested on: NCI/ADR-RES ovarian
[26] = tested on: HS 578T breast
[27] = tested on: HOP-62 NSCLC
[28] = tested on: KM12 colon
[29] = tested on: U251 glioblastoma
[30] = tested on: RXF 393 renal
[31] = tested on: OVCAR-3 ovarian
[32] = tested on: SK-OV-3 ovarian
[33] = tested on: CCRF-CEM leukemia
[34] = tested on: IGROV1 ovarian
[35] = tested on: SK-MEL-5 melanoma
[36] = tested on: NCI-H23 lung
[37] = tested on: COLO 205 colon
[38] = tested on: MALME-3M melanoma
[39] = tested on: HCC-2998 colon
[40] = tested on: OVCAR-5 ovarian
[41] = tested on: MDA-MB-435 melanoma
[42] = tested on: SF-295 CNS
[43] = tested on: SF-268 CNS
[44] = tested on: HL-60(TB) leukemia
[45] = tested on: EKVX NSCLC
[46] = tested on: A549 NSCLC
[47] = tested on: ACHN renal
[48] = tested on: MDA-MB-468 breast
[49] = tested on: MOLT-4 leukemia
[50] = tested on: OVCAR-8 ovarian
[51] = tested on: MDA-MB-231 breast
[52] = tested on: NCI-H522 lung
[53] = tested on: A498 renal
[54] = tested on: HCT-15 colon
[55] = tested on: K-562 leukemia
[56] = tested on: SK-MEL-2 melanoma
[57] = tested on: UACC-62 melanoma
[58] = tested on: SNB-75 CNS
[59] = tested on: HT29 colon

For `CCn1nc(C2CCN(C(=O)CCO)CC2)nc1-c1cnc(N)c(-c2nnc(C(C)(C)C)o2)n1`, which GI50 [1] is on record?
Its GI50 is 10.1 µM.

What about the TGI [1] of the same molecule?
The TGI was 23.8 µM.

And the GI50 [2]?
Its GI50 is 24.6 µM.

And the TGI [2]?
Its TGI is > 100 µM.

And the GI50 [3]?
The GI50 was 16 µM.

And the TGI [3]?
Its TGI is > 100 µM.

What about the GI50 [4] of the same molecule?
The GI50 was 3.65 µM.

What about the TGI [4] of the same molecule?
The TGI was > 100 µM.

And the GI50 [5]?
Its GI50 is 5.27 µM.

And the TGI [5]?
The TGI was > 100 µM.

What about the GI50 [6] of the same molecule?
The GI50 was 6.24 µM.

And the TGI [6]?
The TGI was 54.3 µM.

And the GI50 [7]?
The GI50 was 32.9 µM.

What about the TGI [7] of the same molecule?
The TGI was > 100 µM.

What about the GI50 [8] of the same molecule?
The GI50 was 4.31 µM.

And the TGI [8]?
Its TGI is 77.2 µM.

What about the GI50 [9] of the same molecule?
Its GI50 is 7.59 µM.

And the TGI [9]?
The TGI was > 100 µM.

What about the GI50 [10] of the same molecule?
Its GI50 is 3.35 µM.

What about the TGI [10] of the same molecule?
The TGI was > 100 µM.

What about the GI50 [11] of the same molecule?
Its GI50 is 34.4 µM.

What about the TGI [11] of the same molecule?
The TGI was > 100 µM.

And the GI50 [12]?
Its GI50 is 0.17 µM.

What about the TGI [12] of the same molecule?
Its TGI is 0.832 µM.

What about the GI50 [13] of the same molecule?
Its GI50 is 2.71 µM.

What about the TGI [13] of the same molecule?
The TGI was 76.4 µM.

What about the GI50 [14] of the same molecule?
Its GI50 is 0.2 µM.

What about the TGI [14] of the same molecule?
The TGI was > 100 µM.

And the GI50 [15]?
The GI50 was 5 µM.

And the TGI [15]?
The TGI was > 100 µM.

And the GI50 [16]?
The GI50 was 1.19 µM.

What about the TGI [16] of the same molecule?
The TGI was > 100 µM.

What about the GI50 [17] of the same molecule?
Its GI50 is 5.59 µM.

And the TGI [17]?
Its TGI is > 100 µM.

And the GI50 [18]?
Its GI50 is 13.7 µM.

And the TGI [18]?
Its TGI is 100 µM.

What about the GI50 [19] of the same molecule?
The GI50 was 4.7 µM.

And the TGI [19]?
The TGI was > 100 µM.

What about the GI50 [20] of the same molecule?
Its GI50 is 16.6 µM.

And the TGI [20]?
The TGI was > 100 µM.

And the GI50 [21]?
Its GI50 is 16.5 µM.

And the TGI [21]?
The TGI was 30.9 µM.

What about the GI50 [22] of the same molecule?
The GI50 was 22.2 µM.

And the TGI [22]?
Its TGI is > 100 µM.

What about the GI50 [23] of the same molecule?
The GI50 was 35.2 µM.

What about the TGI [23] of the same molecule?
The TGI was > 100 µM.

And the GI50 [24]?
Its GI50 is 23.2 µM.

And the TGI [24]?
The TGI was > 100 µM.

What about the GI50 [25] of the same molecule?
Its GI50 is 19.4 µM.

And the TGI [25]?
Its TGI is 84.1 µM.

What about the GI50 [26] of the same molecule?
Its GI50 is 6.89 µM.

What about the TGI [26] of the same molecule?
Its TGI is 31.8 µM.

What about the GI50 [27] of the same molecule?
The GI50 was 42.7 µM.

And the TGI [27]?
The TGI was > 100 µM.

What about the GI50 [28] of the same molecule?
Its GI50 is 13.3 µM.

And the TGI [28]?
The TGI was 32.3 µM.

And the GI50 [29]?
The GI50 was 41.7 µM.

And the TGI [29]?
The TGI was > 100 µM.

What about the GI50 [30] of the same molecule?
Its GI50 is 2.42 µM.

What about the TGI [30] of the same molecule?
Its TGI is 15.7 µM.

And the GI50 [31]?
The GI50 was 7 µM.

What about the TGI [31] of the same molecule?
Its TGI is 22.1 µM.

And the GI50 [32]?
The GI50 was 0.599 µM.

And the TGI [32]?
The TGI was 14.8 µM.

What about the GI50 [33] of the same molecule?
Its GI50 is 6.7 µM.

What about the TGI [33] of the same molecule?
Its TGI is 23.4 µM.

And the GI50 [34]?
The GI50 was 0.32 µM.

What about the TGI [34] of the same molecule?
The TGI was 1.81 µM.

What about the GI50 [35] of the same molecule?
The GI50 was 8.62 µM.

What about the TGI [35] of the same molecule?
The TGI was 36.9 µM.

And the GI50 [36]?
Its GI50 is 16.7 µM.

What about the TGI [36] of the same molecule?
Its TGI is 73.7 µM.

What about the GI50 [37] of the same molecule?
Its GI50 is 6.8 µM.

What about the TGI [37] of the same molecule?
The TGI was 23.9 µM.

What about the GI50 [38] of the same molecule?
Its GI50 is 7.64 µM.

And the TGI [38]?
Its TGI is 59.7 µM.

What about the GI50 [39] of the same molecule?
The GI50 was 7.79 µM.

What about the TGI [39] of the same molecule?
The TGI was 47 µM.

What about the GI50 [40] of the same molecule?
The GI50 was 10.7 µM.

What about the TGI [40] of the same molecule?
The TGI was > 100 µM.

What about the GI50 [41] of the same molecule?
The GI50 was 11.3 µM.

And the TGI [41]?
The TGI was > 100 µM.

What about the GI50 [42] of the same molecule?
Its GI50 is 0.993 µM.

What about the TGI [42] of the same molecule?
The TGI was > 100 µM.

What about the GI50 [43] of the same molecule?
The GI50 was 24.4 µM.

And the TGI [43]?
The TGI was > 100 µM.

And the GI50 [44]?
The GI50 was 0.377 µM.

And the TGI [44]?
Its TGI is 12.2 µM.

And the GI50 [45]?
Its GI50 is 3.08 µM.

And the TGI [45]?
Its TGI is 30 µM.

What about the GI50 [46] of the same molecule?
The GI50 was 5.24 µM.

What about the TGI [46] of the same molecule?
Its TGI is > 100 µM.

And the GI50 [47]?
Its GI50 is 15.5 µM.

And the TGI [47]?
The TGI was > 100 µM.

What about the GI50 [48] of the same molecule?
Its GI50 is 2.8 µM.

And the TGI [48]?
Its TGI is 17.1 µM.

And the GI50 [49]?
The GI50 was 1.11 µM.

What about the TGI [49] of the same molecule?
Its TGI is 8.87 µM.

What about the GI50 [50] of the same molecule?
Its GI50 is 29.8 µM.

What about the TGI [50] of the same molecule?
Its TGI is > 100 µM.

What about the GI50 [51] of the same molecule?
The GI50 was 80.9 µM.

And the TGI [51]?
Its TGI is > 100 µM.

And the GI50 [52]?
Its GI50 is 15.1 µM.

What about the TGI [52] of the same molecule?
The TGI was 38.6 µM.

What about the GI50 [53] of the same molecule?
Its GI50 is 18.1 µM.

What about the TGI [53] of the same molecule?
The TGI was > 100 µM.

And the GI50 [54]?
The GI50 was 15.8 µM.

And the TGI [54]?
The TGI was > 100 µM.

And the GI50 [55]?
The GI50 was 17.3 µM.

What about the TGI [55] of the same molecule?
Its TGI is 44.7 µM.

And the GI50 [56]?
Its GI50 is 17.3 µM.

And the TGI [56]?
The TGI was > 100 µM.

What about the GI50 [57] of the same molecule?
The GI50 was 6.81 µM.

And the TGI [57]?
The TGI was > 100 µM.

And the GI50 [58]?
The GI50 was 1.13 µM.

What about the TGI [58] of the same molecule?
Its TGI is 13.2 µM.

And the GI50 [59]?
Its GI50 is 3.02 µM.

And the TGI [59]?
The TGI was 25.5 µM.
